Tests used:
[1] = MTT cytotoxicity assay in BHK-21 cells; assay type: cell-based, hamster; details: hamster
Description: (§1) First, cytotoxic impact of these compounds was evaluated using MTT assay. […] Subsequently, we evaluated the effectiveness of these compounds in inhibiting DENV2 replication. BHK-21 cells were infected with the virus in presence of increasing concentration of these compounds, and harvested at 24 hpi. The virus replication rate was assessed by quantifying the copy number of viral genomic RNA using quantitative real-time PCR (qRT-PCR).
(§2) The MTT assay was performed to determine cellular metabolic activity as an indicator of cell viability, proliferation, and cytotoxicity. Thus, to determine whether these compounds had any toxic effects on cellular viability, an MTT assay was performed following the protocol described previously by Mosmann (1983) ([55], [56]). Briefly, BHK-21 and SH-SHY5Y cells were seeded into 96-well plates at a density of 20,000 cells/well. Almost 16–18 h later, the cells were treated with different concentrations of the compounds (3au and 3aq) for 24 h at 37 °C in 5% CO2. Thereafter, the medium was aspirated, and 100 µL of MTT reagent (5 mg/mL, SRL) in PBS was added to the cells and incubated for 3 h at 37 °C. Formazan crystals were formed in each well and resuspended in 100 µL of dimethyl sulfoxide (DMSO) (Sigma, USA) at room temperature for 20 min to completely dissolve the crystals. The absorbance of the solution in a 96-well plate was measured at 595 nm using a microplate reader (Epoch 2; BioTek Instruments). Each experiment was performed in triplicate, and the percentage of cell viability was determined as the ratio of the absorbance values of the experimental samples to the control solvent (DMSO) on the same plate.

[2] = system: BHK-21 cells; assay: MTT cytotoxicity assay in BHK-21 cells; assay type: cell-based, hamster; details: 24 h
Description: as §1, §2

[3] = system: DENV2; assay: DENV2 replication in BHK-21 cells, viral RNA by qRT-PCR; assay type: cell-based; details: for SI, selectivity index (CC50/IC50): DENV2, BHK-21 cells, qRT-PCR IC50; for IC50: Dengue virus, DENV2, BHK-21, read-out: IC50, reduction of DENV2 viral RNA
Description: as §1
BHK-21 cells were seeded in a 24-well cell culture plate at a density of (0.25 × 10^6 cells/well) with regular growth medium containing DMEM + 10% FBS 1 day prior to infection in triplicate. Once the cells reached 85%–90% confluence, they were infected with DENV2 and JEV virus inoculum comprising DMEM + 2% FBS and 10 µM of the compound at an MOI of 0.1. Cells were incubated for 1.5 h at 37 °C with the virus-compound inoculum, with gentle rocking every 10 min to ensure even coverage and prevent the cellular monolayer from drying. Finally, the inoculum was replenished with fresh culture media comprising DMEM + 2% FBS and the compound, and then kept in an incubator in a humidified chamber at 37 °C until harvest (18 h). The cell culture supernatant was aspirated and washed with PBS, and the cellular monolayer was used for viral RNA isolation.
Total cellular RNA was extracted from BHK-21 cells using TRIzol reagent, according to the manufacturer’s instructions (Ambion Life Technologies, USA). RNA quantity and integrity were determined prior to use on a NanoDrop spectrophotometer (Thermo Fisher Scientific). Then, 1 µg of total RNA from each experimental sample was used to synthesize cDNA by reverse transcriptase (RT) by incubating the RNAs with Moloney murine leukemia virus (M-MuLV) RT, with specific RT primer, 5′-[…]-3′ (Tm = 63 °C), and deoxynucleoside triphosphates (dNTPs) (New England Biolabs) at 42 °C for 50 min, followed by inactivation at 70 °C for 15 min.
To quantify the viral RNA copy number, quantitative RT-PCR (qRT-PCR) was performed in duplicate using iTaq Universal SYBR Green Supermix (Bio-Rad). The cDNAs used for qPCR analysis were prepared using Power SYBR Green PCR Master Mix (Bio-Rad, #172–5125) in a QuantStudio5 Applied Biosystems real-time PCR system. For qPCR amplification of the JEV amplicon size of 202 bp, the sequences of the forward and reverse primer pairs used were 5′-[…]-3′ (Tm = 65 °C) and 5′-[…]-3′ (Tm = 63 °C) and for DENV amplicon of 163 bp, the sequences of the forward and reverse primer pair used were 5′-[…]-3′ (Tm = 61 °C) and 5′-[…]-3′ (Tm = 59 °C). […] Delta Ct for both control and compound-treated samples was determined and subsequently analyzed by determining the delta Ct to determine the mRNA expression of target genes in control vs treated samples.

[4] = system: JEV; assay: Time course of JEV genomic RNA accumulation in BHK-21 cells (qRT-PCR); assay type: cell-based; details: JEV MOI 0.1, BHK-21, 10 µM; for effect on viral genomic RNA abundance at early time points: 1 and 9 hpi; for effect on viral genomic RNA abundance at later time point: 18 hpi
Excerpt: This is because the initial translation of the viral RNA genome leads to the production of a viral polyprotein, which upon processing by the NS2B–NS3 protease, leads to the generation of viral RdRp (NS5) and other NS proteins necessary for RNA synthesis ([15]). Thus, inhibition of the NS2B–NS3 protease by the two potential compounds should affect viral genomic RNA accumulation within infected cells only at later time points post-infection ([46]). To validate this hypothesis, we assessed the effect of the compounds upon dynamic accumulation of viral RNA at different times of post-infection. Cells were infected with the virus in the absence or presence of 3aq or 3au (10 µM) and harvested at different time points post-infection, and viral genomic RNA copies were estimated using qRT-PCR. […] As expected, the abundance of viral genomic RNA remained low at the early time points of infection (1 and 9 hpi) and subsequently peaked at 18 hpi (Fig. 9B). […] This is an indirect effect of NS2B–NS3 protease inhibition, which in turn blocks polyprotein processing and assembly of the viral RNA synthesis machinery.
Fig 9 Detailed molecular mechanism of the inhibitory action of the compounds. (A and B) BHK-21 cells were infected with JEV virus (MOI = 0.1) for 1, 9, and 18 h with or without 10 µM of compounds. Total RNA extracted at indicated times was evaluated by qRT-PCR. The data are expressed as fold changes of the viral RNA levels normalized to GAPDH control relative to the corresponding DMSO treated samples at each time point. (B) Same experiment as in (A) but expressed as relative to the initial inoculation amount (at 1 hpi). BHK-21 cells were infected with JEV (MOI: 0.1) and treated with 3au (C) and 3aq (D) pre + during + post (−3), during + post (0), and post (3, 6, 9) infection. Viral RNA load were assessed at 24 hpi using qRT-PCR. The data are expressed as fold changes of the viral RNA levels normalized to GAPDH control relative to the corresponding DMSO-treated sample. Each experiment is performed in biological triplicate and repeated thrice. Statistical significance was analyzed by two-tailed equal variance Student’s t-test: *P < 0.05, **P < 0.01, ***P < 0.001, and ****P < 0.0001.
To quantify the viral RNA copy number, quantitative RT-PCR (qRT-PCR) was performed in duplicate using iTaq Universal SYBR Green Supermix (Bio-Rad). The cDNAs used for qPCR analysis were prepared using Power SYBR Green PCR Master Mix (Bio-Rad, #172–5125) in a QuantStudio5 Applied Biosystems real-time PCR system. […] Delta Ct for both control and compound-treated samples was determined and subsequently analyzed by determining the delta Ct to determine the mRNA expression of target genes in control vs treated samples.

SMILES | CC50 at 24 h [1] [µM] | non-toxic concentration [2] | SI, selectivity index (CC50/IC50) [3] | IC50 [3] [µM] | effect on viral genomic RNA abundance at early time points [4] | effect on viral genomic RNA abundance at later time point [4]
COc1ccc(-c2csc(N/N=C(\C)c3cc(O)cc(O)c3)n2)cc1 [3au] | 76.6 ± 2.74 | up to 25 µM | 10.38 | 7.38 ± 0.6 | no effect | drastic effect
COc1ccc(-c2csc(N/N=C(\C)c3ccc(O)cc3)n2)cc1 [3aq] | 82 ± 2.38 | up to 25 µM | 18.35 | 4.47 ± 0.41 | no effect | drastic effect
